According to EP2951180B1, “2,6,7,8 SUBSTITUTED PURINES AS HDM2 INHIBITORS” (Merck Sharp & Dohme Corp., priority 2013, dated 2014):
pIC50: −log10 of the molar value. Where two headings read alike, the source gives them in different places.

Target: T1, HDM2 (Homo sapiens, UniProt Q00987)
T1 construct: Thioredoxin (N); made in house; host or cells: E. coli strain BL21(DE3)Rosetta
Test: HDM2 FRET assay (inhibition of binding of FITC labeled p53-pocket peptide to HDM2)
Conditions: for pIC50: read-out: FRET IC50
Method in brief: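 Compounds were tested in 10-point serial dilution against 0.5 nM recombinant HDM2 binding 3 nM fluorescein-labeled p53-pocket peptide. Detection used 0.25 nM terbium cryptate anti-6xHis antibody in PBS buffer containing 0.01% BSA and 0.01% Tween-20.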

T1 sequence (Q00987 17-125): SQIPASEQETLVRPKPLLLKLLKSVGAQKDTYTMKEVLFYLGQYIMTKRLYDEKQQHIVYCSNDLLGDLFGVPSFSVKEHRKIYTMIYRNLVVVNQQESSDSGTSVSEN

`CCCC(C)N(C)c1nc(C(=O)O)nc2nc(-c3cccc(C)c3)n(Cc3ccc(C(F)(F)F)cc3)c12` (stereo not drawn) [Example 6.79, 6-[methyl(1-methylbutyl)amino]-8-(3-methylphenyl)-7-[4-(trifluoromethyl)benzyl]-7H-purine-2-carboxylic acid] was tested, and the inhibition at 1 µM (read-out: inh. at 1000 nM (FRET)) was 43%.

With `Cc1cccc(-c2nc3nc(C(=O)O)nc(N[C@H](CCCN4CCN(C)CC4)C4CCC4)c3n2Cc2ccc(C(F)(F)F)cc2)c1` [Example 7.10, 6-{[(1R)-1-cyclobutyl-4-(4-methylpiperazin-1-yl)butyl]amino}-8-(3-methylphenyl)-7-[4-(trifluoromethyl)benzyl]-7H-purine-2-carboxylic acid] the pIC50 (Table 7) was 7.03.

In the case of `C[C@@H](Nc1nc(-c2noc(=O)[nH]2)nc2nc(N3CCCCC3c3ccc(F)cc3)n(Cc3ccc(C(F)(F)F)cc3)c12)C1CCC1` (stereo partly drawn) [Example 9.112, 3-(6-{[(1R)-1-cyclobutylethyl]amino}-8-[2-(4-fluorophenyl)piperidin-1-yl]-7-[4-(trifluoromethyl)benzyl]-7H-purin-2-yl)-1,2,4-oxadiazol-5(4H)-one], the pIC50 (Table 9) was 8.02.

Compound `Cc1cccc(-c2nc3nc(C(=O)O)nc(N[C@@H](C)c4ccccc4)c3n2Cc2ccc(C(F)(F)F)cc2)c1` [Example 6.31, 8-(3-methylphenyl)-6-{[(1S)-1-phenylethyl]amino}-7-[4-(trifluoromethyl)benzyl]-7H-purine-2-carboxylic acid] has a pIC50 (Table 6) of 5.37.

Compound `C[C@@H](Nc1nc(-c2noc(=O)[nH]2)nc2nc(N3CCOC[C@@H]3c3ccccc3)n(C[C@H]3CC[C@H](C)CC3)c12)C1CCC1` [Example 11.67, 3-(6-{[(1R)-1-cyclobutylethyl]amino}-7-[(trans-4-methylcyclohexyl)methyl]-8-[(3S)-3-phenylmorpholin-4-yl]-7H-purin-2-yl)-1,2,4-oxadiazol-5(4H)-one] has a pIC50 (Table 11) of 7.96.

For `CC(C)c1cc(-c2nc3nc(C(=O)O)nc(N[C@H](C)C4CCC4)c3n2C[C@H]2CC[C@H](C)CC2)[nH]c(=O)c1` [Example 15.3, 6-(((R)-1-cyclobutylethyl)amino)-8-(4-isopropyl-6-oxo-1,6-dihydropyridin-2-yl)-7-((trans-4-methylcyclohexyl)methyl)-7H-purine-2-carboxylic acid], the pIC50 (0.5 nM HDM2 (residues 17 to 125), 3nM peptide, two hour incubation at room temperature) was 7.81.

`C[C@@H](Nc1nc(-c2noc(=O)[nH]2)nc2nc(C(C)(O)C(F)(F)F)n(C[C@H]3CC[C@H](C)CC3)c12)C1CCC1` (single isomer, unassigned) [Example 22.13] gave a pIC50 (Table 22) of 8.23.

`C[C@@H](Nc1nc(-c2n[nH]c(=O)o2)nc2nc(N3CCOC4CCCCC43)n(C[C@H]3CC[C@H](C)CC3)c12)C1CCC1` (single isomer, unassigned) [Example 11.126] showed a pIC50 (Table 11) of 8.84.

Compound `CCN1CCC(C)CC1c1nc2nc(C(=O)O)nc(N[C@H](C)C3CCC3)c2n1C[C@H]1CC[C@H](C)CC1` (stereo partly drawn) [Example 10.34, 6-(((R)-1-Cyclobutylethyl)amino)-8-(1-ethyl-4-methylpiperidin-2-yl)-7-((trans-4-methylcyclohexyl)methyl)-7H-purine-2-carboxylic acid] has a pIC50 (Table 10) of 8.22.

Work on `C[C@@H](Nc1nc(-c2noc(=O)[nH]2)nc2nc(C(=O)c3ccccc3)n(C[C@H]3CC[C@H](C)CC3)c12)C1CCC1` [Example 22.21, 3-[6-{[(1R)-1-cyclobutylethyl]amino}-7-[(trans-4-methylcyclohexyl)methyl]-8-(phenylcarbonyl)-7H-purin-2-yl]-1,2,4-oxadiazol-5(4H)-one] yielded a pIC50 (Table 22) of 9.00.

Work on `C[C@@H](Nc1nc(C(=O)O)nc2nc(NCc3ccccc3)n(Cc3ccc(C(F)(F)F)cc3)c12)C1CCC1` [Example 9.13, 8-(benzylamino)-6-{[(1R)-1-cyclobutylethyl]amino}-7-[4-(trifluoromethyl)benzyl]-7H-purine-2-carboxylic acid] yielded a pIC50 (Table 9) of 8.51.

With `CC(C)c1ccnc(-c2nc3nc(C(=O)O)nc(N[C@H](C)C4CCC4)c3n2C[C@H]2CC[C@H](CF)CC2)c1` [Example 18.10, 6-(((R)-1-cyclobutylethyl)amino)-7-((trans-4-(fluoromethyl)cyclohexyl)methyl)-8-(4-isopropylpyridin-2-yl)-7H-purine-2-carboxylic acid] the pIC50 (Table 18) was 8.03.
